# Measured values: patent publication US9290503B2, “Tricyclic compound derivatives useful in the treatment of neoplastic diseases, inflammatory disorders and immunomodulatory disorders” (CHEMBRIDGE CORPORATION, priority 2006, dated 2016)
# pIC50: −log10 of the molar value.
# Experiments:
# [1] = system: normal cell line CHO; assay: Myeloma-selective cytotoxicity (FIG. 11), CHO; format: cell-based, chinese hamster
# Text: (§1) All the above were active in the multiple myeloma cell line H929.
# [2] = system: multiple myeloma cell line H929; assay: Myeloma-selective cytotoxicity (FIG. 11), H929; format: cell-based, human
# Text: as §1
# [3] = molecular target: T1, IGF1R tyrosine kinase (Homo sapiens, UniProt P08069); assay: IGF1R tyrosine kinase assay (Kinase-Glo ATP depletion or PT66/PT100 AlphaScreen); format: biochemical; conditions: FIG. 12
# T1 construct: purified recombinant, 6×His- or GST-tagged kinase domain fragments of the corresponding RTKs expressed in baculovirus system; host or cells: baculovirus system
# Method: To determine inhibition of several tyrosine kinases, such as IGF1R, InsR, Alk, TrkA and Jak2, kinase assays are conducted using either Kinase-Glo (Promega) or AlphaScreen (PerkinElmer) kinase assay platforms. The Kinase-Glo Luminescent Kinase Assay is a homogeneous method for measuring kinase activity by determining the amount of ATP remaining after a kinase reaction. The luminescent signal is proportional to the amount of ATP and inversely proportional to the amount of kinase activity. Tyrosine kinase PT66 AlphaScreen Assay is a high-sensitivity homogeneous, anti-phosphotyrosine antibody-mediated luminescent proximity method measuring incorporation of phosphate in synthetic poly(Glu-Tyr) substrate. The kinase preparations used consist of purified recombinant, 6×His- or GST-tagged kinase domain fragments of the corresponding RTKs expressed in baculovirus system.
# The IGF1R tyrosine kinase is assayed in Kinase-Glo ATP depletion assay using the synthetic polymer poly(Glu-Tyr, 4:1) (Sigma Chemicals) as a phosphoacceptor substrate. Each reaction mixture consists of a total volume of 10 μl and contains 40 ng of the enzyme, 5 μg of poly(Glu-Tyr), 10 μM of ATP and variable concentrations of test compounds. The mixtures also contain 50 mM Tris-HCl, pH 7.5; 5 mM MgCl2; 5 mM MnCl2; 2 mM DTT and 0.01% Tween 20. The reaction mixtures are incubated at 37° C. for 60 minutes and residual concentration of ATP in the mixture is determined by adding luciferase-containing Kinase-Glo (Promega) development reagent and counting luminescence levels using Fusion Universal Microplate Analyzer (PerkinElmer). Tested compounds are dissolved in dimethyl sulfoxide to a stock concentration of 10 mM and are typically evaluated in the assay at eight concentrations in 1 nM to 20 μM range, each in quadruplicate. […] IC50 values are derived by non-linear regression analysis using Prism 3.0 software (Graphpad Software). […]
# [4] = system: myeloma cells of primary patient sample; assay: Induction of apoptosis in primary patient sample; format: cell-based, human; conditions: for apoptosis of myeloma cells: primary patient sample
# Text: (§2) FIG. 8 depicts the apoptosis of myeloma cells induced by the compounds of the invention. Primary patient sample exposed to DMSO or compound (2a) (i.e., CRL 103142) or compound (2b) (i.e., CRL 130323) for 24 hr and indicated concentrations. LUQ-% viable myeloma cells and LLQ-% viable non-myeloma cells.
# as §2, with “9” for “8”, “48” for “24”
# as §2, with “10” for “8”, “96” for “24”
# Primary patient sample exposed to DMSO or the compounds of the invention for 24 hours, 48 hours, and 96 hours and with a concentration of 0.4 μM, 0.6 μM, 1.2 μM, and 1.8 μM. LUQ-% viable myeloma cells and LLQ-% viable non-myeloma cells. The compounds of the invention included significant apoptosis of myeloma cells (FIGS. 8-10).
# [5] = system: human myeloma cell lines; assay: Effect on cell cycle, PI staining; format: cell-based; conditions: sensitive cell lines; 24 hours; 0.6 μM and 1.8 μM
# Method: (§3) FIG. 6 depicts the effect of compound (2a) (i.e., CRL 103142) and compound (2b) (i.e., CRL 130323) on cell cycle. 4 human myeloma cell lines (3 sensitive and 1 resistant) were incubated for 24 hrs with indicated concentrations of compound (2a) and compound (2b) and effect on cell cycle was assessed by PI staining. Results are reported as percentage of cells in G0-G1 or S phase.
# 4 human myeloma cell lines (3 sensitive and 1 resistant) were incubated for 24 hours with the compounds of the invention, including compounds (2a) and (2b), with a concentration of 0.6 μM and 1.8 μM and effect on cell cycle was assessed by PI staining. Results are reported as percentage of cells in G0-G1 or S phase.
# [6] = system: human myeloma cell lines; assay: Effect on apoptosis, PI/annexin V staining; format: cell-based; conditions: sensitive cell lines; 48 or 72 hours; 0.6 μM and 1.8 μM
# Method: as §3, with “7” for “6”, “apoptosis.” for “cell cycle.”, “48 or 72” for “24”, “apoptosis” for “cell cycle”, “PI/annexin V” for “PI”, “viable (PI−/annexin V−) cells.” for “cells in G0-G1 or S phase.”
# 4 human myeloma cell lines (3 sensitive and 1 resistant) were incubated for 48 or 72 hours with the compounds of the invention, including compounds (2a) and (2b), having a concentration of 0.6 μM and 1.8 μM and effect on apoptosis was assessed by PI/annexin V staining. Results are reported as percentage of viable (PI−/annexin V−) cells.
# [7] = system: normal cell line HEK293; assay: Myeloma-selective cytotoxicity (FIG. 11), HEK293; format: cell-based, human
# Text: as §1
# [8] = system: KMS11; assay: Cell proliferation assay, MTT, KMS11; format: cell-based; conditions: Homo sapiens, KMS-11, 72 h, standard 3-day proliferation assay
# Text: (§4) IGF1R and other tyrosine kinase inhibitors can inhibit the proliferation of certain cancer cell lines indicating their possible therapeutic utility for treating the corresponding cancer types. Cancer cell lines of interest and control normal lines, including CHO, HEK293, BA/F3, COLO205, PC3, DU145, MCF7, Panc1, ACHN, Hep G2, H460, K562, TT, U87-MG, CAOV-3, SK-MEL5, Karpas 299 and human multiple myeloma cell lines H929, MM1s, MM1r, UTMC2, CPM2, KMS11, My5, KMS12PE, My7, JJN3, KMS18, U266, SKMM2, RPMI-8226 are plated in white, clear-bottomed 384-well cell culture plates at 2500-5000 cells per well and supplied with dilutions of tested compounds After a desired period of time (typically 3 days), the number of viable cells is quantitated by using Cell Titer-Glo Luminescent Cell Viability Assay (Promega), a cell proliferation assay system based on detection of total amount of ATP present as a measure of cell metabolic activity. The plated cells are mixed with the Cell Titer-Glo developing reagent and counted in a luminescence multiwell plate reader according to the standard manufacturer's protocol to generate IC50 curves for cell proliferation inhibition. […] Alternatively, viable cells are quantitated by using the conventional colorimetric MTT assay. […] The formazan is then solubilized, and the concentration determined by optical density at 570 nm. […]
# [9] = system: JJN3; assay: Cell proliferation assay, MTT, JJN3; format: cell-based; conditions: Homo sapiens, JJN-3, 72 h, standard 3-day proliferation assay
# Text: as §4
# [10] = system: My5; assay: Cell proliferation assay, MTT, My5; format: cell-based; conditions: Homo sapiens, 72 h, standard 3-day proliferation assay
# Text: as §4
# [11] = system: RPMI-8226; assay: Cell proliferation assay, MTT, RPMI-8226; format: cell-based; conditions: Homo sapiens, RPMI-8226, 72 h, standard 3-day proliferation assay
# Text: as §4
# [12] = system: U266; assay: Cell proliferation assay, MTT, U266; format: cell-based; conditions: Homo sapiens, U-266, 72 h, standard 3-day proliferation assay
# Text: as §4
# [13] = system: My7; assay: Cell proliferation assay, MTT, My7; format: cell-based; conditions: Homo sapiens, 72 h, standard 3-day proliferation assay
# Text: as §4
# [14] = system: HEK293 (human normal embryonic kidney); assay: Cell proliferation assay, MTT, HEK293; format: cell-based; conditions: HEK293, 72 h, standard 3-day proliferation assay, read-out: HEK IC50
# Text: as §4
# [15] = system: UTMC2; assay: Cell proliferation assay, MTT, UTMC2; format: cell-based; conditions: Homo sapiens, UTMC2, 72 h, standard 3-day proliferation assay
# Text: as §4
# [16] = system: H929; assay: Cell proliferation assay, MTT, H929; format: cell-based; conditions: Homo sapiens, NCI-H929, 72 h, standard 3-day proliferation assay
# Text: as §4
# [17] = system: CHO (chinese hamster ovary); assay: Cell proliferation assay, MTT, CHO; format: cell-based; conditions: Cricetulus griseus, 72 h, standard 3-day proliferation assay
# Text: as §4
# [18] = system: MM1r; assay: Cell proliferation assay, MTT, MM1r; format: cell-based; conditions: Homo sapiens, MM.1R, 72 h, standard 3-day proliferation assay
# Text: as §4
# [19] = system: KMS18; assay: Cell proliferation assay, MTT, KMS18; format: cell-based; conditions: Homo sapiens, KMS18, 72 h, standard 3-day proliferation assay
# Text: as §4
# [20] = system: KMS12PE; assay: Cell proliferation assay, MTT, KMS12PE; format: cell-based; conditions: Homo sapiens, KMS-12-PE, 72 h, standard 3-day proliferation assay
# Text: as §4
# [21] = system: CPM2; assay: Cell proliferation assay, MTT, CPM2; format: cell-based; conditions: Homo sapiens, 72 h, standard 3-day proliferation assay
# Text: as §4
# [22] = system: SKMM2; assay: Cell proliferation assay, MTT, SKMM2; format: cell-based; conditions: Homo sapiens, SK-MM-2, 72 h, standard 3-day proliferation assay
# Text: as §4
# [23] = system: MM1s; assay: Cell proliferation assay, MTT, MM1s; format: cell-based; conditions: Homo sapiens, MM1.S, 72 h, standard 3-day proliferation assay
# Text: as §4
# [24] = Toxicity in animals, body weight (FIG. 13); format: in vivo; conditions: highest doses tested
# T1 sequence (P08069 999-1274 limits assumed): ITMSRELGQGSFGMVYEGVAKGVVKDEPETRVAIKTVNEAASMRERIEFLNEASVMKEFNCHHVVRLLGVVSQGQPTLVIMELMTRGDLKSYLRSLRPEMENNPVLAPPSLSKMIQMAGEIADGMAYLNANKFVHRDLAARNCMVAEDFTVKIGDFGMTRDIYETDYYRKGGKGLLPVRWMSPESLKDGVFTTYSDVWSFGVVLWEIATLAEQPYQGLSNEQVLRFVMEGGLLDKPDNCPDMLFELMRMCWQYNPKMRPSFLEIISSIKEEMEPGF
structure (smiles),measurement,setting,value
Cc1ccc(OC[C@H](O)CNc2cc[nH]c(=O)c2-c2nc3cc4c(cc3[nH]2)CN(C2CCN(C)CC2)C4=O)c(C)c1 [2a],toxicity in normal cell line CHO,[1],demonstrated toxicity
same,activity in multiple myeloma cell line H929,[2],active
same,IGF-1R potency in vitro,[3],same potency range as known preclinical compounds
same,apoptosis of myeloma cells,[4]; 24 hr,induced significant apoptosis of myeloma cells
same,apoptosis of myeloma cells,[4]; 48 hr,induced significant apoptosis of myeloma cells
same,apoptosis of myeloma cells,[4]; 96 hr,induced significant apoptosis of myeloma cells
same,effect on cell cycle (percentage of cells in G0-G1 or S phase),[5],induced significant G1 growth arrest
same,effect on apoptosis (percentage of viable PI−/annexin V− cells),[6],induced significant apoptosis
same,toxicity in normal cell line HEK293,[7],demonstrated toxicity
Cc1ccc(OCC(=O)CNc2cc[nH]c(=O)c2C2Nc3cc4c(cc3N2)C(=O)N(C2CCN(CCS(C)(=O)=O)CC2)C4)c(C)c1 (stereo not drawn),pIC50,[8],5.30 to 6.00
same,pIC50,[9],5.30 to 6.00
same,pIC50,[10],4.70 to 5.30
same,pIC50,[11],4.70 to 5.30
same,pIC50,[12],5.30 to 6.00
same,pIC50,[13],5.30 to 6.00
same,pIC50,[14],≤ 4.70
same,pIC50,[15],> 6.30
same,pIC50,[16],6.00 to 6.30
same,pIC50,[17],≤ 4.70
same,pIC50,[18],5.30 to 6.00
same,pIC50,[19],4.70 to 5.30
same,pIC50,[20],5.30 to 6.00
same,pIC50,[21],5.30 to 6.00
same,pIC50,[22],5.30 to 6.00
same,pIC50,[23],6.00 to 6.30
Cc1ccc(OC[C@H](O)CNc2cc[nH]c(=O)c2-c2nc3cc4c(cc3[nH]2)CN(C2CCN(CCS(C)(=O)=O)CC2)C4=O)c(C)c1 [2b],toxicity in animals (body weight),[24],no signs of toxicity
same,toxicity in animals (body weight),[24]; listed as CRL130323,no observable toxicity
same,toxicity in normal cell line CHO,[1],did not demonstrate toxicity
same,activity in multiple myeloma cell line H929,[2],active
same,selectivity towards multiple myeloma lines,[2],highly selective
same,IGF-1R potency in vitro,[3],same potency range as known preclinical compounds
same,IGF-1R potency in vitro,[3]; listed as CRL130323,comparable IGF-1R potency
same,"selectivity, viable myeloma cells versus viable non-myeloma cells","[4]; primary patient sample, 24, 48 and 96 hours",more selective
same,apoptosis of myeloma cells,[4]; 24 hr,induced significant apoptosis of myeloma cells
same,apoptosis of myeloma cells,[4]; 48 hr,induced significant apoptosis of myeloma cells
same,apoptosis of myeloma cells,[4]; 96 hr,induced significant apoptosis of myeloma cells
same,effect on cell cycle (percentage of cells in G0-G1 or S phase),[5],induced significant G1 growth arrest
same,effect on apoptosis (percentage of viable PI−/annexin V− cells),[6],induced significant apoptosis
same,toxicity in normal cell line HEK293,[7],did not demonstrate toxicity
